Test results reported in PubChem BioAssay (NCI).
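Assay format: 96-well plates, 48-hour exposure. GI50 = concentration required for 50% inhibition of growth. The concentration for full growth arrest is given as TGI.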

What was measured:
Assay in all cases: inhibition of tumour cell growth, NCI panel, 48 h
UACC-257 melanoma = test system: UACC-257 melanoma
TK-10 renal = test system: TK-10 renal
OVCAR-8 ovarian = test system: OVCAR-8 ovarian
HT29 colon = test system: HT29 colon
ACHN renal = test system: ACHN renal
MALME-3M melanoma = test system: MALME-3M melanoma
A549 NSCLC = test system: A549 NSCLC
KM12 colon = test system: KM12 colon
NCI/ADR-RES ovarian = test system: NCI/ADR-RES ovarian
DU-145 prostate = test system: DU-145 prostate

SMILES | TGI (UACC-257 melanoma) | TGI (TK-10 renal) | TGI (OVCAR-8 ovarian) | TGI (HT29 colon) | TGI (ACHN renal) | TGI (MALME-3M melanoma) | TGI (A549 NSCLC) | TGI (KM12 colon) | GI50 (UACC-257 melanoma) | GI50 (OVCAR-8 ovarian) | GI50 (HT29 colon) | GI50 (ACHN renal) | GI50 (MALME-3M melanoma) | GI50 (A549 NSCLC) | GI50 (KM12 colon) | GI50 (TK-10 renal) | GI50 (NCI/ADR-RES ovarian) | TGI (NCI/ADR-RES ovarian) | GI50 (DU-145 prostate) | TGI (DU-145 prostate)
O=C1c2cccc([N+](=O)[O-])c2C(=O)c2nccnc21 | 1.66 µM | 3.85 µM | 7.09 µM | 4.3 µM | 15.1 µM | 3.04 µM | 3.37 µM | – | – | – | – | – | – | – | – | – | – | – | – | –
O=C(CN(Cc1ccccc1)Cc1ccccc1)N1CCc2c([nH]c3ccccc23)C1c1cccnc1 (configuration not stated) | > 100 µM | > 100 µM | > 100 µM | 19.7 µM | > 100 µM | – | > 100 µM | 26.3 µM | – | – | – | – | – | – | – | – | – | – | – | –
CN1C(c2ccccc2)CC(C)(O)CC1c1ccccc1 (configuration not stated) | > 100 µM | > 100 µM | > 100 µM | > 100 µM | > 100 µM | > 100 µM | > 100 µM | > 100 µM | – | – | – | – | – | – | – | – | – | – | – | –
Cc1ccccc1C=NC12CC3CC(CC(C3)C1)C2 | > 100 µM | > 100 µM | > 100 µM | > 100 µM | > 100 µM | > 100 µM | > 100 µM | > 100 µM | – | – | – | – | – | – | – | – | – | – | – | –
Cc1cc(Cl)ccc1NC(=O)CC1SC(=NC(=O)c2ccccc2Cl)NC1=O (configuration not stated) | 38.6 µM | – | > 100 µM | 45 µM | 30.8 µM | 37.1 µM | > 100 µM | – | – | – | – | – | – | – | – | – | – | – | – | –
CC[O-].CC[O-].COc1ccc(C(=O)[CH-]C(C)=O)cc1OC.COc1ccc(C(=O)[CH-]C(C)=O)cc1OC.[Ti+4] | > 100 µM | – | > 100 µM | > 100 µM | > 100 µM | 86.6 µM | > 100 µM | – | > 100 µM | 81.9 µM | 47.8 µM | 35.9 µM | 35.1 µM | > 100 µM | – | – | – | – | – | –
CS(=O)(=O)O[C@H]1C(=O)N(c2cc3c4ccccc4ccc3c3ccccc23)[C@@H]1c1ccccn1 | > 100 µM | > 100 µM | > 100 µM | – | > 100 µM | – | > 100 µM | > 100 µM | 16.9 µM | 0.712 µM | – | 0.877 µM | – | 0.665 µM | 0.473 µM | 0.996 µM | 0.523 µM | > 100 µM | 0.416 µM | > 100 µM
CCc1cccc(C)c1N1C(=O)C(=O)C(c2nc3ccccc3o2)/C(=N/NC(=S)NN)C1=O (configuration not stated) | > 100 µM | > 100 µM | > 100 µM | > 100 µM | > 100 µM | > 100 µM | > 100 µM | > 100 µM | – | – | – | – | – | – | – | – | – | – | – | –
O=CC1CCC=CC1NC(=O)OCc1ccccc1 (configuration not stated) | > 100 µM | > 100 µM | 52.3 µM | > 100 µM | > 100 µM | – | > 100 µM | > 100 µM | – | – | – | – | – | – | – | – | – | – | – | –
N#CC(C(=O)/C(=N/NC(=O)c1ccccc1O)C(C#N)c1ccc(Br)cc1)c1ccc(Br)cc1 (configuration not stated) | 29.5 µM | 39.1 µM | 19.8 µM | 33.9 µM | 26.7 µM | 24.6 µM | 39.9 µM | 25.5 µM | – | – | – | – | – | – | – | – | – | – | – | –
O=C1Nc2ccc(O)cc2/C1=C\c1ccncc1 | 33.3 µM | 39.8 µM | > 100 µM | – | 27.9 µM | – | 82.8 µM | 46.4 µM | 13.2 µM | 25.4 µM | – | 11.7 µM | – | 26.2 µM | 16.9 µM | 18.6 µM | 23.7 µM | 60.1 µM | 19.5 µM | 54.2 µM
CCOC(=O)NC(=O)c1cn(CCCCCCCCCCC(=O)NCCCN2CCN(CCCNC(=O)CCCCCCCCCCn3cc(C(=O)NC(=O)OCC)c(=O)[nH]c3=O)CC2)c(=O)[nH]c1=O | > 100 µM | > 100 µM | > 100 µM | > 100 µM | > 100 µM | > 100 µM | > 100 µM | > 100 µM | – | – | – | – | – | – | – | – | – | – | – | –
O=C(Nc1ccccc1)n1cc(-c2ccccn2)c(N2CCOCC2)n1 | > 100 µM | > 100 µM | > 100 µM | 19.1 µM | > 100 µM | 8.78 µM | > 100 µM | 62.7 µM | – | – | – | – | – | – | – | – | – | – | – | –
O=C(CCC(=O)Nc1ccc(Cl)cc1)CC(=O)c1ccc2ccccc2c1 | > 100 µM | > 100 µM | > 100 µM | > 100 µM | > 100 µM | > 100 µM | > 100 µM | > 100 µM | – | – | – | – | – | – | – | – | – | – | – | –
O=C[C@]12CC=C3OC4OC5(CCCCC5)OC4[C@H]3[C@H]1C(=O)C=CC2=O (some centres not stated) | 45.3 µM | 81.3 µM | 34.6 µM | > 100 µM | 58.5 µM | 34.4 µM | > 100 µM | > 100 µM | – | – | – | – | – | – | – | – | – | – | – | –
N#CC(C#N)=Cc1ccc(C(O)P(=O)(O)O)cc1 (configuration not stated) | > 100 µM | > 100 µM | > 100 µM | > 100 µM | > 100 µM | > 100 µM | > 100 µM | > 100 µM | – | – | – | – | – | – | – | – | – | – | – | –
C=C1C(=O)O[C@@H]2C[C@@H]1CC[C@]1(C)O[C@H]1CC/C(C)=C/CC[C@@]2(C)O | 31.8 µM | 37.8 µM | 57.8 µM | 31.7 µM | – | – | 83.7 µM | 34.3 µM | 11.3 µM | 22.3 µM | 15.4 µM | – | – | 25.3 µM | 16.2 µM | 15.4 µM | 20.9 µM | 56.3 µM | – | –
